Key:
[1] = test system: smallflower umbrella sedge; test: Test C flooded paddy test; assay type: in vivo, Cyperus difformis; settings: for Plant response rating, Sedge, Umbrella: 500 g ai/ha, visual rating after 12 to 14 days
goosegrass = test: Test C pre-/postemergence herbicide test; assay type: in vivo, Eleusine indica
Procedure, shortened: (§1)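 Greenhouse-grown plants were evaluated visually 12 to 14 days after treatment, with 100 meaning complete control and 0 no effect. Application was preemergence, or postemergence at 2 to 18 cm.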

soybean = test: Test C pre-/postemergence herbicide test; assay type: in vivo, Glycine max
Procedure, shortened: as §1

rice = test: Test B pre-/postemergence herbicide test; assay type: in vivo, Oryza sativa; settings: preemergence
Procedure, shortened: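 Species tested were Echinochloa crus-galli, Ipomoea coccinea, Xanthium strumarium and Oryza sativa, treated both before emergence and at the 1- to 4-leaf stage; rice and barnyardgrass were also tested under flooding at 2 leaves. Greenhouse incubation lasted 13–15 days before visual 0–100 scoring.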

kochia = test: Test C pre-/postemergence herbicide test; assay type: in vivo, Kochia scoparia
Procedure, shortened: as §1

giant foxtail = test: Test C pre-/postemergence herbicide test; assay type: in vivo, Setaria faberi
Procedure, shortened: as §1

morningglory [2] = test: Test A pre-/postemergence herbicide test; assay type: in vivo, Ipomoea spp.
Procedure, shortened: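 Plants are held in greenhouse about ten days after treatment, then compared with untreated controls and scored 0 (no effect) to 100 (complete control). Preemergence dosing is a directed soil spray on sown sandy loam; postemergence dosing is spray to runoff at 2–10 cm height.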

morningglory [3] = test: Test C pre-/postemergence herbicide test; assay type: in vivo, Ipomoea coccinea; parameters: key to Plant response rating, Morningglory: 0 = no effect, 100 = complete control
Procedure, shortened: as §1

bermudagrass = test: Test C pre-/postemergence herbicide test; assay type: in vivo, Cynodon dactylon
Procedure, shortened: as §1

[4] = test system: common (oilseed) sunflower; test: Test C pre-/postemergence herbicide test; assay type: in vivo, Helianthus annuus; settings: preemergence; for Plant response rating (0 = no effect, 100 = complete control), Sunflower: 125 g ai/ha
Description: Seeds of plant species selected from bermudagrass (Cynodon dactylon (L.) Pers.), Surinam grass (Urochloa decumbens (Staph) R. D. Webster, previously named Brachiaria decumbens Stapf), cocklebur (Xanthium strumarium L.), corn (Zea mays L.), large crabgrass (Digitaria sanguinalis (L.) Scop.), woolly cupgrass (Eriochloa villosa (Thunb.) Kunth), giant foxtail (Setaria faberi Herrm.), goosegrass (Eleusine indica (L.) Gaertn.), johnsongrass (Sorghum halepense (L.) Pers.), kochia (Kochia scoparia (L.) Schrad.), lambsquarters (Chenopodium album L.), morningglory (Ipomoea coccinea L.), eastern black nightshade (Solanum ptycanthum Dunal), yellow nutsedge (Cyperus esculentus L.), pigweed (Amaranthus retroflexus L.), common ragweed (Ambrosia elatior L.), soybean (Glycine max (L.) Merr.), common (oilseed) sunflower (Helianthus annuus L.) and velvetleaf (Abutilon theophrasti Medik.) were planted and treated preemergence with test chemicals formulated in a non-phytotoxic solvent mixture which included a surfactant.
At the same time, plants selected from these crop and weed species and also winter barley (Hordeum vulgare L.), blackgrass (Alopecurus myosuroides Huds.), canarygrass (Phalaris minor Retz.), chickweed (Stellaria media (L.) Vill.), downy bromegrass (Bromus tectorum L.), green foxtail (Setaria viridis (L.) Beauv.), Italian ryegrass (Lolium multiflorum Lam.), wheat (Triticum aestivum L.), wild oat (Avenafatua L.) and windgrass (Apera spica-venti (L.) Beauv.) were treated with postemergence applications of some of the test chemicals formulated in the same manner. Plants ranged in height from 2 to 18 cm (1- to 4-leaf stage) for postemergence treatments. Plant species in the flooded paddy test consisted of rice (Oryza sativa), smallflower umbrella sedge (Cyperus difformis L.), ducksalad (Heteranthera limosa (Sw.) Willd.) and barnyardgrass (Echinochloa crus-galli (L.) Beauv.) grown to the 2-leaf stage for testing. Treated plants and controls were maintained in a greenhouse for 12 to 14 days, after which time all species were compared to controls and visually evaluated. Plant response ratings, summarized in Table C, are based on a scale of 0 to 100 where 0 is no effect and 100 is complete control. A dash (-) response means no test result.

[5] = 250 g ai/ha, scale of 0 to 100, 0 is no effect, 100 is complete control
[6] = scale 0 to 100 (0 no effect, 100 complete control)
[7] = Postemergence, 500 g ai/ha, scale 0 to 100
[8] = Postemergence, 250 g ai/ha, scale 0 to 100, 0 no effect, 100 complete control
[9] = postemergence, 125 g ai/ha, scale 0 to 100
[10] = postemergence, 62 g ai/ha, scale 0 to 100
[11] = Postemergence, 500 g ai/ha, 0 to 100 scale, 0 no effect, 100 complete control
[12] = Postemergence, 2000 g ai/ha, 0 to 100 scale, 0 no effect, 100 complete control
[13] = Preemergence, 2000 g ai/ha, visual rating, 0 to 100 scale (0 no effect, 100 complete control)
[14] = preemergence, 500 g ai/ha, visual injury, 0 to 100 scale (0 no effect, 100 complete control)
[15] = 62 g ai/ha, preemergence, scale 0 to 100
[16] = 250 g ai/ha, scale 0-100, preemergence
[17] = 500 g ai/ha, scale 0 to 100 (0 no effect, 100 complete control), visual, 12 to 14 days, preemergence
[18] = 500 g ai/ha, scale 0 to 100 (0 no effect, 100 complete control), visual, 12 to 14 days
[19] = 62 g ai/ha, preemergence, scale 0 to 100, 0 no effect, 100 complete control

SMILES: CCn1nc(C(C)(C)C)cc1C(=O)Nc1cccc(OC(F)(F)F)c1 [Compound 272]
- Sedge, Umbrella plant response rating ([1]; 62 g ai/ha, scale 0 to 100): 30
- Sedge, Umbrella plant response rating ([1]; 125 g ai/ha, scale 0 to 100 (0 no effect, 100 complete control)): 65
- Sedge, Umbrella plant response rating [1, 5]: 75
- Plant response rating, Sedge, Umbrella [1, 6]: 75
- Goosegrass plant response rating (goosegrass; [7]): 80
- Plant response rating, Goosegrass (goosegrass; [8]): 75
- Plant response rating, Goosegrass (goosegrass; [9]): 65
- Plant response rating, Goosegrass (goosegrass; [10]): 20
- Soybean plant response rating (soybean; [7]): 95
- Plant response rating, Soybean (soybean; [8]): 85
- Plant response rating, Soybean (soybean; [9]): 80
- Plant response rating, Soybean (soybean; [10]): 60
- Rice plant response rating (0 to 100 scale) (rice; 125 g ai/ha, 0 = no effect, 100 = complete control): 0
- Plant response rating, Rice (rice; 500 g ai/ha, visual rating, 0 = no effect, 100 = complete control): 20
- Kochia plant response rating (kochia; [7]): 100
- Plant response rating, Kochia (kochia; [8]): 100
- Plant response rating, Kochia (kochia; [9]): 100
- Plant response rating, Kochia (kochia; [10]): 95
- Foxtail, Giant plant response rating (giant foxtail; [7]): 75
- Plant response rating, Foxtail, Giant (giant foxtail; [8]): 60
- Plant response rating, Foxtail, Giant (giant foxtail; [9]): 45
- Plant response rating, Foxtail, Giant (giant foxtail; [10]): 15
- Morningglory plant response rating (morningglory [2]; [11]): 100
- Plant response rating, Morningglory (morningglory [2]; [12]): 100
- Morningglory plant response rating (morningglory [2]; [13]): 55
- Morningglory plant response rating (morningglory [2]; [14]): 20
- Morningglory plant response rating (morningglory [3]; [7]): 100
- Plant response rating, Morningglory (morningglory [3]; [8]): 100
- Plant response rating, Morningglory (morningglory [3]; [9]): 100
- Plant response rating, Morningglory (morningglory [3]; [10]): 80
- Bermudagrass plant response rating (bermudagrass; [7]): 100
- Plant response rating, Bermudagrass (bermudagrass; [8]): 100
- Plant response rating, Bermudagrass (bermudagrass; [9]): 80
- Plant response rating, Bermudagrass (bermudagrass; [10]): 50

SMILES: CCN(CC)C(=O)c1cccc(NC(=O)c2nn(C(C)(C)C)nc2C)c1 [Compound 418]
- Plant response rating, Goosegrass (goosegrass; [15]): 55
- Plant response rating (0 = no effect, 100 = complete control), Goosegrass (goosegrass; 125 g ai/ha, preemergence): 100
- Plant response rating, Goosegrass (goosegrass; [16]): 100
- Plant response rating, Goosegrass (goosegrass; [17]): 100
- Plant response rating, Sunflower ([4]; 62 g ai/ha, scale 0 to 100): 0
- Plant response rating (0 = no effect, 100 = complete control), Sunflower [4]: 0
- Plant response rating, Sunflower [4, 18]: 0
- Plant response rating, Soybean (soybean; [15]): 0
- Plant response rating (0 = no effect, 100 = complete control), Soybean (soybean; 125 g ai/ha, preemergence): 20
- Plant response rating, Soybean (soybean; [17]): 90
- Plant response rating, Kochia (kochia; [15]): 65
- Plant response rating (0 = no effect, 100 = complete control), Kochia (kochia; 125 g ai/ha, preemergence): 80
- Plant response rating, Kochia (kochia; [16]): 85
- Plant response rating, Kochia (kochia; [17]): 95
- Plant response rating, Foxtail, Giant (giant foxtail; [15]): 65
- Plant response rating (0 = no effect, 100 = complete control), Foxtail, Giant (giant foxtail; 125 g ai/ha, preemergence): 95
- Plant response rating, Foxtail, Giant (giant foxtail; [16]): 100
- Plant response rating, Foxtail, Giant (giant foxtail; [17]): 100
- Plant response rating, Morningglory (morningglory [3]; [15]): 20
- Plant response rating (0 = no effect, 100 = complete control), Morningglory (morningglory [3]; 125 g ai/ha, preemergence): 70
- Plant response rating, Morningglory (morningglory [3]; [17]): 100
- Plant response rating, Bermudagrass (bermudagrass; [19]): 100
- Plant response rating (0 = no effect, 100 = complete control), Bermudagrass (bermudagrass; 125 g ai/ha, preemergence): 100
- Plant response rating, Bermudagrass (bermudagrass; [16]): 100
- Plant response rating, Bermudagrass (bermudagrass; [17]): 100

SMILES: CCn1nc(C(C)(C)C)cc1C(=O)Nc1cccc(C(=O)OC)c1 [Compound 81]
- Sedge, Umbrella plant response rating ([1]; 62 g ai/ha, scale 0 to 100 (0 no effect, 100 complete control)): 70
- Sedge, Umbrella plant response rating ([1]; 125 g ai/ha, scale of 0 to 100, 0 is no effect, 100 is complete control): 70
- Sedge, Umbrella plant response rating [1, 5]: 80
- Plant response rating, Sedge, Umbrella [1, 6]: 80
- Plant response rating, Goosegrass (goosegrass; [8]): 10
- Plant response rating, Goosegrass (goosegrass; [9]): 5
- Plant response rating, Goosegrass (goosegrass; [10]): 0
- Plant response rating, Soybean (soybean; [8]): 30
- Plant response rating, Soybean (soybean; [9]): 30
- Plant response rating, Soybean (soybean; [10]): 10
- Plant response rating, Rice (rice; 125 g ai/ha, 0 to 100 scale, 0 is no effect, 100 is complete control): 0
- Plant response rating, Kochia (kochia; [8]): 70
- Plant response rating, Kochia (kochia; [9]): 20
- Plant response rating, Kochia (kochia; [10]): 0
- Plant response rating, Foxtail, Giant (giant foxtail; [8]): 20
- Plant response rating, Foxtail, Giant (giant foxtail; [9]): 10
- Plant response rating, Foxtail, Giant (giant foxtail; [10]): 10
- Plant response rating, Morningglory (morningglory [3]; [8]): 10
- Plant response rating, Morningglory (morningglory [3]; [9]): 10
- Plant response rating, Morningglory (morningglory [3]; [10]): 10
- Bermudagrass plant response rating (bermudagrass; Postemergence, 250 g ai/ha, scale 0 to 100): 20
- Plant response rating, Bermudagrass (bermudagrass; [9]): 0
- Plant response rating, Bermudagrass (bermudagrass; postemergence, 31 g ai/ha, scale 0 to 100): 0
- Plant response rating, Bermudagrass (bermudagrass; [10]): 0

SMILES: CCc1nn(C(C)(C)C)nc1C(=O)Nc1cccc(C(=O)NC2CC2)c1 [Compound 417]
- Plant response rating, Goosegrass (goosegrass; [15]): 95
- Plant response rating (0 = no effect, 100 = complete control), Goosegrass (goosegrass; 125 g ai/ha, preemergence): 100
- Plant response rating, Goosegrass (goosegrass; [16]): 100
- Plant response rating, Goosegrass (goosegrass; [17]): 100
- Plant response rating, Sunflower ([4]; 62 g ai/ha, scale 0 to 100): 0
- Plant response rating (0 = no effect, 100 = complete control), Sunflower [4]: 0
- Plant response rating, Sunflower [4, 18]: 0
- Plant response rating, Soybean (soybean; [15]): 0
- Plant response rating (0 = no effect, 100 = complete control), Soybean (soybean; 125 g ai/ha, preemergence): 0
- Plant response rating, Soybean (soybean; [17]): 40
- Plant response rating, Kochia (kochia; [15]): 0
- Plant response rating (0 = no effect, 100 = complete control), Kochia (kochia; 125 g ai/ha, preemergence): 85
- Plant response rating, Kochia (kochia; [16]): 100
- Plant response rating, Kochia (kochia; [17]): 100
- Plant response rating, Foxtail, Giant (giant foxtail; [15]): 65
- Plant response rating (0 = no effect, 100 = complete control), Foxtail, Giant (giant foxtail; 125 g ai/ha, preemergence): 90
- Plant response rating, Foxtail, Giant (giant foxtail; [16]): 95
- Plant response rating, Foxtail, Giant (giant foxtail; [17]): 100
- Morningglory plant response rating (morningglory [2]; [11]): 70
- Plant response rating, Morningglory (morningglory [2]; [12]): 85
- Morningglory plant response rating (morningglory [2]; [13]): 80
- Morningglory plant response rating (morningglory [2]; [14]): 20
- Plant response rating, Morningglory (morningglory [3]; [15]): 0
- Plant response rating (0 = no effect, 100 = complete control), Morningglory (morningglory [3]; 125 g ai/ha, preemergence): 20
- Plant response rating, Morningglory (morningglory [3]; [17]): 95
- Plant response rating, Bermudagrass (bermudagrass; [19]): 100
- Plant response rating (0 = no effect, 100 = complete control), Bermudagrass (bermudagrass; 125 g ai/ha, preemergence): 100
- Plant response rating, Bermudagrass (bermudagrass; [16]): 100
- Plant response rating, Bermudagrass (bermudagrass; [17]): 100
